{"source": "ChEMBL document CHEMBL4507292", "about": "(2021)", "key": {"[1]": {"target": "Glucocorticoid receptor (Homo sapiens) (UniProt P04150)", "sequence (P04150 whole entry)": "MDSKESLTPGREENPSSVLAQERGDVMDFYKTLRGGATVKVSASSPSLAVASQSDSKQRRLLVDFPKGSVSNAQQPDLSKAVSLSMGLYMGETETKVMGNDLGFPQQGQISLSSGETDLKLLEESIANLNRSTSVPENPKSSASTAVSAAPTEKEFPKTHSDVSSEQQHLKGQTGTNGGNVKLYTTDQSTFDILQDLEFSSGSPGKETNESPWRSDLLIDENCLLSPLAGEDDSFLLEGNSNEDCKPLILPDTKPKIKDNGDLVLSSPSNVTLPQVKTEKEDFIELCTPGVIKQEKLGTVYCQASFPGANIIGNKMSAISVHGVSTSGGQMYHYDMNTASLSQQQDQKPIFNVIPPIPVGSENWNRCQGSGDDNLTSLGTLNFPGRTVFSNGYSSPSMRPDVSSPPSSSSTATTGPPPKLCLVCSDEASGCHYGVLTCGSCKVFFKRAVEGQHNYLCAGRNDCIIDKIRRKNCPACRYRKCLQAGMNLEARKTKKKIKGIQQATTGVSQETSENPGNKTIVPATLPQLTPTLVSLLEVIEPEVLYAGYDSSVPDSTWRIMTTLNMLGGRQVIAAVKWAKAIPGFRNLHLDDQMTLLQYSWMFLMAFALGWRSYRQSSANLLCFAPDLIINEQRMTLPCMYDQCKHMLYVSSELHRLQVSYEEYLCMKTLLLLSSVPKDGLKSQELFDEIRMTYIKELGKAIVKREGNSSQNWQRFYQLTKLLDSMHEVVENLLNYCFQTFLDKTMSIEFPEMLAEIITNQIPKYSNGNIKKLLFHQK", "assay": "Glucocorticoid Eurofins-Panlabs radioligand binding assay", "details": "Compound concentration 10.0 uM"}, "[2]": {"target": "T1, Alpha-2A adrenergic receptor (Homo sapiens) (UniProt P08913)", "T1 sequence (whole entry)": "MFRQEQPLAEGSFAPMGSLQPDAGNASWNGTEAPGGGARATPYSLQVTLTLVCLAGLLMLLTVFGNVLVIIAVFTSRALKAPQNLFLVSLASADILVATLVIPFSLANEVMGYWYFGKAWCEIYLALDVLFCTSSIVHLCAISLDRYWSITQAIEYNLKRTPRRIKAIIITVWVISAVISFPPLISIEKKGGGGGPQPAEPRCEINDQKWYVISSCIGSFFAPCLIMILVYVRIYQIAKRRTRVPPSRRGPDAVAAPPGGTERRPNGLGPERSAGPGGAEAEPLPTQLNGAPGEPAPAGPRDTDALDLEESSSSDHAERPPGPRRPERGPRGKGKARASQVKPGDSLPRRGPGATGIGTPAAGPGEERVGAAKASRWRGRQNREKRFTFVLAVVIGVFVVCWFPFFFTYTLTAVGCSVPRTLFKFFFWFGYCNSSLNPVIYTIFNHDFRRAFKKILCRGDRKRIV", "assay": "Adrenergic alpha2A Eurofins-Panlabs radioligand binding assay", "design": "ligand concentration 1 nM, non-specific ligand with concentration 10 µM WB-4101, incubation time 60 min, incubation temperature 25 °C"}, "[3]": {"target": "Kappa-type opioid receptor (Homo sapiens, UniProt P41145)", "sequence (P41145 whole entry)": "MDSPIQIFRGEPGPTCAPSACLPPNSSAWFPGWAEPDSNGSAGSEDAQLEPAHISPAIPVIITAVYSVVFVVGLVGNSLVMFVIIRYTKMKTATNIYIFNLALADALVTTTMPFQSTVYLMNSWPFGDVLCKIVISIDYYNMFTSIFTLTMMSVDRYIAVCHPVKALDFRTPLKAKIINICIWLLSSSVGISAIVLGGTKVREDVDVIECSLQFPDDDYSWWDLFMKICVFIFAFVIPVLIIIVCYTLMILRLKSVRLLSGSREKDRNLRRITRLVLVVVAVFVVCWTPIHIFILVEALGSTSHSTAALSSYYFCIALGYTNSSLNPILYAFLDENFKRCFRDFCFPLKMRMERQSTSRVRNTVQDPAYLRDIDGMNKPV"}, "Homo sapiens [4]": {"species": "Homo sapiens"}, "[5]": {"assay": "(§1) Cholecystokinin CCK2 (CCKB) Eurofins-Panlabs radioligand binding assay", "design": "species or system Homo sapiens; ligand concentration 0.072 nM, non-specific ligand with concentration 1 µM Sincalide, incubation time 3 h, incubation temperature 25 °C"}, "Homo sapiens [6]": {"species": "Homo sapiens", "assay": "as §1", "design": "ligand concentration 0.072 nM, non-specific ligand with concentration 1 µM Sincalide, incubation time 3 h, incubation temperature 25 °C"}, "[7]": {"target": "5-hydroxytryptamine receptor 4 (Homo sapiens) (UniProt Q13639)", "sequence (Q13639 whole entry)": "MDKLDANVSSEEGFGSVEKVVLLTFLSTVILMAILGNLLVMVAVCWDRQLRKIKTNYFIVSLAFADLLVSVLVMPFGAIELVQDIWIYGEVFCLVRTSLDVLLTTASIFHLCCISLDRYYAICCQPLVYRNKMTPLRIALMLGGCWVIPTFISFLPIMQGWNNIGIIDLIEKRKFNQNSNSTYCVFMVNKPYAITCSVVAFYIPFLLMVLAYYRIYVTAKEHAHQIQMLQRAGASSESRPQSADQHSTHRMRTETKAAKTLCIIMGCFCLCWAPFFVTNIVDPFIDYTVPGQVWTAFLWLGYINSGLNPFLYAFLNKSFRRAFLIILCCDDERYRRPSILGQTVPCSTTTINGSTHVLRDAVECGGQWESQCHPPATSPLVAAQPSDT", "assay": "Inhibition of Serotonin (5-Hydroxytryptamine) 5-HT4 at 10 µM in the Eurofins-Panlabs radioligand binding assay (Eurofins_assay_272000)", "details": "Cavia porcellus; Compound concentration 10.0 uM"}, "[8]": {"target": "Vasopressin V1a receptor (Homo sapiens) (UniProt P37288)", "details": "Compound concentration 10.0 uM"}, "[9]": {"target": "Glutamate NMDA receptor (Rattus norvegicus) (UniProt P35439+Q00959+Q00960+Q00961+Q62645+Q8VHN2+Q9R1M7)", "details": "Compound concentration 10.0 uM"}, "[10]": {"target": "5-hydroxytryptamine receptor 1A (Homo sapiens, UniProt P08908)", "assay": "Inhibition of Serotonin (5-Hydroxytryptamine) 5-HT1A at compound concentration of 10.0 uM in the Eurofins-Panlabs radioligand binding assay (Eurofins_assay_271110)", "design": "ligand concentration 1.5 nM, non-specific ligand with concentration 10 uM Metergoline, incubation time 60 min, incubation temperature 25 C"}, "[11]": {"target": "T2, 5-hydroxytryptamine receptor 1A (Homo sapiens) (UniProt P08908)", "T2 sequence (whole entry)": "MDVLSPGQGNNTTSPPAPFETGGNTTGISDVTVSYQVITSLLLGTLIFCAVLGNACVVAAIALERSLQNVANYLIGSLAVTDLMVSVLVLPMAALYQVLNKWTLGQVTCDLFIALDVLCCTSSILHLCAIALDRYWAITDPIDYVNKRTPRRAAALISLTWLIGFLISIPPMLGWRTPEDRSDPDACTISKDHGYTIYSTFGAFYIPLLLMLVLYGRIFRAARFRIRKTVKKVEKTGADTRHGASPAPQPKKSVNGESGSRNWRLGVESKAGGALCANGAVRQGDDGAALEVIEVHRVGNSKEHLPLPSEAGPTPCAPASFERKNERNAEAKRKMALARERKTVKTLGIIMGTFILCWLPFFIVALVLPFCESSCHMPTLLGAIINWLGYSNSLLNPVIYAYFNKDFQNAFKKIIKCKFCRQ"}, "[12]": {"target": "D(2) dopamine receptor (Homo sapiens) (UniProt P14416)", "sequence (P14416 whole entry)": "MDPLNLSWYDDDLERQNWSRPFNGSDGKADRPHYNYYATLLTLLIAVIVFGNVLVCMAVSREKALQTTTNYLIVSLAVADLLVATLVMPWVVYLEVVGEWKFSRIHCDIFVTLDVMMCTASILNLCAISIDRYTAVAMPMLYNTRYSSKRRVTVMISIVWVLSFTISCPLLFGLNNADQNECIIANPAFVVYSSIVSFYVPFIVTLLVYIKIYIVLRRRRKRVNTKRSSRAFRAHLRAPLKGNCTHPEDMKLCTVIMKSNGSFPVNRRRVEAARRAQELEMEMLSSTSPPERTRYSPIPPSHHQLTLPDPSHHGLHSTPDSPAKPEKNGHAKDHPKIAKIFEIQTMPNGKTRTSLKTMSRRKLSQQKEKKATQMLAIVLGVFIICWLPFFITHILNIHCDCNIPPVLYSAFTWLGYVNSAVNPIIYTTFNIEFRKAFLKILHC", "details": "Compound concentration 10.0 uM"}, "Rattus norvegicus": {"species": "Rattus norvegicus", "assay": "Inhibition of Glycine, Strychnine-Sensitive at 10 µM in the Eurofins-Panlabs radioligand binding assay (Eurofins_assay_239000)", "details": "Compound concentration 10.0 uM"}, "[13]": {"target": "cGMP-dependent 3',5'-cyclic phosphodiesterase (Homo sapiens, UniProt O00408)", "sequence (O00408 whole entry)": "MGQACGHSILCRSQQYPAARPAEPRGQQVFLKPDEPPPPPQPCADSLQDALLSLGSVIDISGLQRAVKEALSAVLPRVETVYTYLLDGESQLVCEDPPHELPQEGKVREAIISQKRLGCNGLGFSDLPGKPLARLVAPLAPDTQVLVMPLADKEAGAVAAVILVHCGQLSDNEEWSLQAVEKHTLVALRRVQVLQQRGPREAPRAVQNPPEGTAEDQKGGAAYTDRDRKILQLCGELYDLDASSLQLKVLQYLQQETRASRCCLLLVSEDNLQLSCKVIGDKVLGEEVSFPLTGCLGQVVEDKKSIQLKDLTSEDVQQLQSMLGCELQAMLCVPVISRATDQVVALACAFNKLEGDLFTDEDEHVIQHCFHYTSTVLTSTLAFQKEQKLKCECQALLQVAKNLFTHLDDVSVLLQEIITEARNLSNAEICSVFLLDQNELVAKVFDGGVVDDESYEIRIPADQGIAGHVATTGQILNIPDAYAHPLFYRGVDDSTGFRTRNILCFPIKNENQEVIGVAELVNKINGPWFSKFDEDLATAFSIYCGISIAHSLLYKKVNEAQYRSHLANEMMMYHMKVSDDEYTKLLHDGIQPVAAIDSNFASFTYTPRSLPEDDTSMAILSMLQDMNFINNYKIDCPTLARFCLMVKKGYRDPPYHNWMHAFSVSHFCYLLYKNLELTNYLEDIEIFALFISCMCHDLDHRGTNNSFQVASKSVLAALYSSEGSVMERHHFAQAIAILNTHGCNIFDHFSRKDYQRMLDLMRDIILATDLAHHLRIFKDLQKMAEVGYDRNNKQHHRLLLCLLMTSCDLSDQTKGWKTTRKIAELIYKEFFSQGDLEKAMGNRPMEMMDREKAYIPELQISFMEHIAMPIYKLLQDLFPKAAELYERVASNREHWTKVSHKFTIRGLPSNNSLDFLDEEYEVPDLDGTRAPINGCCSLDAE", "assay": "Phosphodiesterase PDE2 Eurofins-Panlabs enzyme assay", "design": "substrate with concentration [3H] cAMP + cAMP, incubation time 20 min, incubation temperature 25 °C"}, "Caspase-8 (Homo sapiens)": {"target": "Caspase-8 (Homo sapiens) (UniProt Q14790)", "sequence (Q14790 217-374 limits assumed)": "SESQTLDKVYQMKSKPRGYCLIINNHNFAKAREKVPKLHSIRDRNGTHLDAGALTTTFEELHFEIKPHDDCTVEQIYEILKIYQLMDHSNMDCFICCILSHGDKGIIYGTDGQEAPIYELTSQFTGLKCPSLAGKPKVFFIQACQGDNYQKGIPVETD", "sequence (Q14790 385-479 limits assumed)": "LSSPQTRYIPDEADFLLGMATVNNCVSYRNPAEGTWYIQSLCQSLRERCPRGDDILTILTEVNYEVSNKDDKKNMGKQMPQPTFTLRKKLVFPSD", "assay": "Peptidase, CASP8 (Caspase 8) Eurofins-Panlabs enzyme assay", "details": "concentration not given here"}, "[14]": {"target": "Sodium-dependent serotonin transporter (Homo sapiens, UniProt P31645)", "assay": "Transporter, Serotonin (5- Hydroxytryptamine) (SERT) Eurofins-Panlabs radioligand binding assay", "design": "ligand concentration 0.15 nM, non-specific ligand with concentration 10 µM Imipramine, incubation time 3 h, incubation temperature 4 °C"}, "[15]": {"target": "Macrophage metalloelastase (Homo sapiens) (UniProt P39900)", "assay": "Peptidase, Matrix Metalloproteinase-12 (MMP-12) Eurofins-Panlabs enzyme assay", "details": "Compound concentration 10.0 uM"}, "[16]": {"target": "5-hydroxytryptamine receptor 2A (Homo sapiens) (UniProt P28223)", "sequence (P28223 whole entry)": "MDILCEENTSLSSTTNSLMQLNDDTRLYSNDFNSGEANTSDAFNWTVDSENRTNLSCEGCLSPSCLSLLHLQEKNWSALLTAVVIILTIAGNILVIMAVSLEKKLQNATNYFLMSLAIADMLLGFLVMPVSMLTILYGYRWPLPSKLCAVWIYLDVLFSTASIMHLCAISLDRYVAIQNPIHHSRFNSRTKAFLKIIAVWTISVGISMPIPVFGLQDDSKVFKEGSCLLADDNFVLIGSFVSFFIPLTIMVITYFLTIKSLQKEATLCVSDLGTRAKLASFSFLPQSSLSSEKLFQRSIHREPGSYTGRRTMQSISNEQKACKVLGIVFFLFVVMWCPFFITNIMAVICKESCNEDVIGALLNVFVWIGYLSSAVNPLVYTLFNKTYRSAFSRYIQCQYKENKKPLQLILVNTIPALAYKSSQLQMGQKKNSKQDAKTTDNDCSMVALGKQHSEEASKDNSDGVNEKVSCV", "details": "Compound concentration 10.0 uM"}, "[17]": {"target": "cGMP-specific 3',5'-cyclic phosphodiesterase (Homo sapiens, UniProt O76074)"}, "Oryctolagus cuniculus": {"species": "Oryctolagus cuniculus", "assay": "Inhibition of Purinergic P2X at 10 µM in the Eurofins-Panlabs radioligand binding assay (Eurofins_assay_268700)", "assay_type": "protein assay", "details": "Compound concentration 10.0 uM"}, "[18]": {"target": "Glutamate NMDA receptor; GRIN1/GRIN2A (Homo sapiens) (UniProt Q05586+Q12879)", "assay": "NMDA-NR1a/NR2a Eurofins-Panlabs radioligand binding assay", "assay_type": "protein-complex assay", "details": "Compound concentration 10.0 uM"}, "[19]": {"target": "Somatostatin receptor type 5 (Homo sapiens) (UniProt P35346)", "sequence (P35346 whole entry)": "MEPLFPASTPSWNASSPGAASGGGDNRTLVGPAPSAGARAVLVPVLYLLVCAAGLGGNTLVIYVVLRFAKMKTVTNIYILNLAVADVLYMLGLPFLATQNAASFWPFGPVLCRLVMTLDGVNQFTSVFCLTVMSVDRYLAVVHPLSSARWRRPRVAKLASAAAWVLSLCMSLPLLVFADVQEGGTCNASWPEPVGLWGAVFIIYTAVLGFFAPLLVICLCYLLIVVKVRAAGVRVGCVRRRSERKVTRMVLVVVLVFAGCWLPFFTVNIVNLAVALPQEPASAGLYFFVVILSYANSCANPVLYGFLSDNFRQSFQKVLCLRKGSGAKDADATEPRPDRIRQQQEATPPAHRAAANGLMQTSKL", "assay": "Somatostatin sst5 Eurofins-Panlabs radioligand binding assay", "details": "Compound concentration 10.0 uM"}, "Caspase-6 (Homo sapiens)": {"target": "Caspase-6 (Homo sapiens) (UniProt P55212)", "sequence (P55212 24-179 limits assumed)": "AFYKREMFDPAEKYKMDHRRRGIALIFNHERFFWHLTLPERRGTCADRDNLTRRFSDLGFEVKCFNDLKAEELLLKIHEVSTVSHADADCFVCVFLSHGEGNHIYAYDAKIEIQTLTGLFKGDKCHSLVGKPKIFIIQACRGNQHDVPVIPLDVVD", "sequence (P55212 194-293 limits assumed)": "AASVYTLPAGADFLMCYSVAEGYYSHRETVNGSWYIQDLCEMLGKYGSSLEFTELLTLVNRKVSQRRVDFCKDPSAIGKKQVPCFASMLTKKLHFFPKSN", "assay": "Peptidase, CASP6 (Caspase 6) Eurofins-Panlabs enzyme assay", "design": "substrate with concentration", "details": "Compound concentration 10.0 uM"}, "[20]": {"target": "Polyunsaturated fatty acid 5-lipoxygenase (Homo sapiens) (UniProt P09917)", "sequence (P09917 whole entry)": "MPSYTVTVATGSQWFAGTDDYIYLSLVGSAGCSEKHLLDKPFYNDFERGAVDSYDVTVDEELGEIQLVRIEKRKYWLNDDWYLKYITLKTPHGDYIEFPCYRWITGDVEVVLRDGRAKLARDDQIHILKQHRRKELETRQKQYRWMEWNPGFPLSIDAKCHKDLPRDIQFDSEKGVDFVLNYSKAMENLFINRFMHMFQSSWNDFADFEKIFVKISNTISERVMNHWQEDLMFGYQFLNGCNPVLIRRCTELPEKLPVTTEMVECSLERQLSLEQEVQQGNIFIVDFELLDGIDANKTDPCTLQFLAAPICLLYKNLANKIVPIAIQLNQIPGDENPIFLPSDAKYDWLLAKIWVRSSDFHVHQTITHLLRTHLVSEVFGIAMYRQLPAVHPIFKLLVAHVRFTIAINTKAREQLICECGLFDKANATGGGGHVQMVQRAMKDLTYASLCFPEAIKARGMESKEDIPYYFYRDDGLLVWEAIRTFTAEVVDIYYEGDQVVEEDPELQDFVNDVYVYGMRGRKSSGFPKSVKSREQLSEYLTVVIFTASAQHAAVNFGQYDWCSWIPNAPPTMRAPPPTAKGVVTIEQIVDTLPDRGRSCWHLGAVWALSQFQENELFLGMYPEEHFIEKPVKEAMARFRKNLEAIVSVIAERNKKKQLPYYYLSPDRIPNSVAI", "assay": "Lipoxygenase 5-LO Eurofins-Panlabs enzyme assay", "details": "Compound concentration 10.0 uM"}, "[21]": {"details": "Compound concentration 100.0 uM"}}, "data": [{"smiles": "O=C(O)c1cc(-c2ccc(C3CCNCC3)cc2)c2ccc(-c3ccc(C(F)(F)F)cc3)cc2c1", "note": "[PPTN]", "values": [{"measurement": "inhibition", "setting": "[1]", "result": -9, "unit": "%"}, {"measurement": "inhibition", "setting": "[2]; Compound concentration 0.01 uM", "result": 9, "unit": "%"}, {"measurement": "inhibition", "setting": "[2]; Compound concentration 0.1 uM", "result": 13, "unit": "%"}, {"measurement": "inhibition", "setting": "[2]; Compound concentration 1.0 uM", "result": 11, "unit": "%"}, {"measurement": "inhibition", "setting": "[2]; Compound concentration 10.0 uM", "result": 78, "unit": "%"}, {"measurement": "inhibition", "setting": "[3]; Compound concentration 0.1 uM", "result": -1, "unit": "%"}, {"measurement": "inhibition", "setting": "[3]; Compound concentration 1.0 uM", "result": 1, "unit": "%"}, {"measurement": "inhibition", "setting": "[3]; Compound concentration 10.0 uM", "result": 63, "unit": "%"}, {"measurement": "inhibition", "setting": "Homo sapiens [4]; Compound concentration 0.01 uM", "result": -3, "unit": "%"}, {"measurement": "inhibition", "setting": "Homo sapiens [4]; Compound concentration 0.1 uM", "result": -3, "unit": "%"}, {"measurement": "inhibition", "setting": "Homo sapiens [4]; Compound concentration 1.0 uM", "result": -8, "unit": "%"}, {"measurement": "inhibition", "setting": "Homo sapiens [4]; Compound concentration 10.0 uM", "result": 67, "unit": "%"}, {"measurement": "IC50", "setting": "[5]", "result": 10, "unit": "µM"}, {"measurement": "inhibition", "setting": "Homo sapiens [6]; Compound concentration 0.01 uM", "result": 3, "unit": "%"}, {"measurement": "inhibition", "setting": "Homo sapiens [6]; Compound concentration 0.1 uM", "result": -1, "unit": "%"}, {"measurement": "inhibition", "setting": "Homo sapiens [6]; Compound concentration 1.0 uM", "result": 0, "unit": "%"}, {"measurement": "inhibition", "setting": "Homo sapiens [6]; Compound concentration 10.0 uM", "result": 48, "unit": "%"}, {"measurement": "inhibition", "setting": "[7]", "result": 11, "unit": "%"}, {"measurement": "inhibition", "setting": "[8]", "result": 3, "unit": "%"}, {"measurement": "inhibition", "setting": "[9]", "result": 1, "unit": "%"}, {"measurement": "IC50", "setting": "[10]", "result": 7.01, "unit": "µM"}, {"measurement": "Ki", "setting": "[10]", "result": 4, "unit": "µM"}, {"measurement": "inhibition", "setting": "[11]; Compound concentration 0.01 uM", "result": 0, "unit": "%"}, {"measurement": "inhibition", "setting": "[11]; Compound concentration 0.1 uM", "result": -2, "unit": "%"}, {"measurement": "inhibition", "setting": "[11]; Compound concentration 1.0 uM", "result": 4, "unit": "%"}, {"measurement": "inhibition", "setting": "[11]; Compound concentration 10.0 uM", "result": 64, "unit": "%"}, {"measurement": "inhibition", "setting": "[12]", "result": 28, "unit": "%"}, {"measurement": "inhibition", "setting": "Rattus norvegicus", "result": -3, "unit": "%"}, {"measurement": "IC50", "setting": "[13]", "result": 86.9, "unit": "µM"}, {"measurement": "inhibition", "setting": "[13]; Compound concentration 1.0 uM", "result": -3, "unit": "%"}, {"measurement": "inhibition", "setting": "[13]; Compound concentration 10.0 uM", "result": 4, "unit": "%"}, {"measurement": "inhibition", "setting": "[13]; [21]", "result": 55, "unit": "%"}, {"measurement": "inhibition", "setting": "Caspase-8 (Homo sapiens)", "result": 7, "unit": "%"}, {"measurement": "IC50", "setting": "[14]", "result": 9.47, "unit": "µM"}, {"measurement": "Ki", "setting": "[14]", "result": 5.03, "unit": "µM"}, {"measurement": "inhibition", "setting": "[14]; Compound concentration 0.01 uM", "result": -7, "unit": "%"}, {"measurement": "inhibition", "setting": "[14]; Compound concentration 0.1 uM", "result": -9, "unit": "%"}, {"measurement": "inhibition", "setting": "[14]; Compound concentration 1.0 uM", "result": -6, "unit": "%"}, {"measurement": "inhibition", "setting": "[14]; Compound concentration 10.0 uM", "result": 58, "unit": "%"}, {"measurement": "inhibition", "setting": "[15]", "result": -1, "unit": "%"}, {"measurement": "inhibition", "setting": "[16]", "result": 42, "unit": "%"}, {"measurement": "inhibition", "setting": "[17]; Compound concentration 0.1 uM", "result": -3, "unit": "%"}, {"measurement": "inhibition", "setting": "[17]; Compound concentration 1.0 uM", "result": -8, "unit": "%"}, {"measurement": "inhibition", "setting": "[17]; Compound concentration 10.0 uM", "result": 22, "unit": "%"}, {"measurement": "inhibition", "setting": "[17]; [21]", "result": 72, "unit": "%"}, {"measurement": "inhibition", "setting": "Oryctolagus cuniculus", "result": 14, "unit": "%"}, {"measurement": "inhibition", "setting": "[18]", "result": 12, "unit": "%"}, {"measurement": "inhibition", "setting": "[19]", "result": 20, "unit": "%"}, {"measurement": "inhibition", "setting": "Caspase-6 (Homo sapiens)", "result": -8, "unit": "%"}, {"measurement": "inhibition", "setting": "[20]", "result": -9, "unit": "%"}]}]}
